Assay results taken from ChEMBL document CHEMBL6087483 (J Med Chem, 2025).

Tests used:
HCT-116 [1] = experiment: Antiproliferative activity against MTAP deleted human HCT-116 cells assessed as inhibition of cell viability by luminescence based cell titer-glo assay; type: functional
HCT-116 [2] = experiment: Antiproliferative activity against MTAP wild type human HCT-116 cells assessed as inhibition of cell viability by luminescence based cell titer-glo assay; type: functional
[3] = Selectivity ratio of IC50 for antiproliferative activity against MTAP wild type human HCT-116 cells to IC50 for antiproliferative activity against MTAP deleted human HCT-116 cells; type: functional
[4] = Volume of distribution at steady state in male CD-1 mouse at 5 mg/kg, po or 1 mg/kg, iv measured upto 24 hrs; type: ADME, organism-based; settings: in vivo
[5] = AUC (0 to 24 hrs) in male Sprague-Dawley rat at 5 mg/kg, po or 1 mg/kg, iv measured upto 24 hrs; type: ADME, organism-based; settings: in vivo
[6] = Cmax in male CD-1 mouse at 5 mg/kg, po or 1 mg/kg, iv measured upto 24 hrs; type: ADME, organism-based; settings: in vivo
[7] = AUC (0 to 24 hrs) in male CD-1 mouse at 5 mg/kg, po or 1 mg/kg, iv measured upto 24 hrs; type: ADME, organism-based; settings: in vivo
[8] = Oral bioavailability in male CD-1 mouse at 5 mg/kg or 1 mg/kg, iv measured upto 24 hrs; type: ADME, organism-based; settings: in vivo
[9] = Oral bioavailability in male Sprague-Dawley rat at 5 mg/kg or 1 mg/kg, iv measured upto 24 hrs; type: ADME, organism-based; settings: in vivo
[10] = Cmax in male Sprague-Dawley rat at 5 mg/kg, po or 1 mg/kg, iv measured upto 24 hrs; type: ADME, organism-based; settings: in vivo
[11] = Volume of distribution at steady state in male Sprague-Dawley rat at 5 mg/kg, po or 1 mg/kg, iv measured upto 24 hrs; type: ADME, organism-based; settings: in vivo

## Nc1nc2ccc(C(=O)N3C[C@H]4C[C@@H]3CN4c3ccccc3)cc2c2c1COC2
HCT-116 [1]
  IC50: 2450 nM

## CN(C(=O)c1ccc2nc(N)c3c(c2c1)COC3)[C@@H]1CCN(c2ccc3cnn(C)c3c2)C1
HCT-116 [1]
  IC50: 313 nM
HCT-116 [2]
  IC50: 630 nM

## CN(C(=O)c1ccc2nc(N)c3c(c2c1)COC3)C1CCN(c2ccccc2)CC1
HCT-116 [1]
  IC50: 3890 nM

## CN(C(=O)c1ccc2nc(N)c3c(c2c1)COC3)[C@@H]1CCCN(c2ccccc2)C1
HCT-116 [1]
  IC50: > 10000 nM

## Nc1nc2cnc(C(=O)N3CCOC[C@@H]3c3ccc(C(F)(F)F)cc3)cc2c2c1COC2
[3]
  Ratio IC50: 66

## CN(C(=O)c1ccc2nc(N)c3c(c2c1)COC3)[C@@H]1CCN(c2ccc(S(C)(=O)=O)cc2)C1
HCT-116 [1]
  IC50: 641 nM
HCT-116 [2]
  IC50: > 10000 nM

## Cc1cc2nc(N)c3c(c2cc1C(=O)N(C)[C@@H]1CCN(c2ccc(C#N)cc2)C1)COC3
[4]
  Vdss: 2.84 L/kg
HCT-116 [1]
  IC50: 7 nM
[5]
  AUC: 2310 ng·h/mL
[6]
  Cmax: 611 ng/mL
[7]
  AUC: 1720 ng·h/mL
[8]
  bioavailability: 83.1%
[3]
  Ratio IC50: 169
[9]
  bioavailability: 46.1%
[10]
  Cmax: 496 ng/mL
HCT-116 [2]
  IC50: 1180 nM
[11]
  Vdss: 1.29 L/kg

## CN(C(=O)c1ccc2nc(N)c3c(c2c1)COC3)[C@@H]1CCN(c2ccc(C(F)(F)F)cc2)C1
HCT-116 [1]
  IC50: 1090 nM
HCT-116 [2]
  IC50: > 10000 nM

## CN(C(=O)c1ccc2nc(N)c3c(c2c1)COC3)[C@@H]1CCN(c2ccc(C3=CCOCC3)cc2)C1
HCT-116 [1]
  IC50: 451 nM
HCT-116 [2]
  IC50: > 10000 nM

## Nc1nc2ccc(C(=O)N3C[C@@H]4C[C@H]3CN4c3ccccc3)cc2c2c1COC2
HCT-116 [1]
  IC50: 719 nM

## CN(C(=O)c1ccc2nc(N)c3c(c2c1)COC3)[C@@H]1CCN(c2ccccc2)C1
HCT-116 [1]
  IC50: 1020 nM

## CN(C(=O)c1cc2c3c(c(N)nc2cn1)COC3)[C@@H]1CCN(c2ccc(C#N)cc2)C1
HCT-116 [1]
  IC50: 137 nM
HCT-116 [2]
  IC50: 9350 nM

## CN(C(=O)c1ccc2nc(N)c3c(c2c1)COC3)[C@@H]1CCN(c2ccc(C3CC3)cc2)C1
HCT-116 [1]
  IC50: 1570 nM
